According to the supplement of paper PMC10307832:

What was measured:
Assay in all cases: relative viability (nuclei count vs DMSO), 5 days (fraction); higher = more cells survive
KN-93 + Bortezomib = compound: CN(C/C=C/C1=CC=C(C=C1)Cl)CC2=CC=CC=C2N(CCO)S(=O)(=O)C3=CC=C(C=C3)OC [KN-93] + CC(C)C[C@H](NC(=O)[C@H](Cc1ccccc1)NC(=O)c1cnccn1)B(O)O [Bortezomib] (partner 0.002 µM)
In short: (§1)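 Dosing by pin tool came one day after lung cancer cell lines were seeded in 1536-well plates, using either one drug or a fixed anchor-drug dose plus five library-drug doses (not always all listed) in √10 steps. After 5 days, nuclei were counted on 4× images. Relative viability is treated-well nuclei count divided by vehicle-well nuclei count, and values are medians of duplicate plates.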

KN-93 + Linsitinib = compound: CN(C/C=C/C1=CC=C(C=C1)Cl)CC2=CC=CC=C2N(CCO)S(=O)(=O)C3=CC=C(C=C3)OC [KN-93] + C[C@]1(O)C[C@@H](c2nc(-c3ccc4ccc(-c5ccccc5)nc4c3)c3c(N)nccn32)C1 [Linsitinib] (partner 1 µM)
In short: as §1

KN-93 + Tozasertib = compound: CN(C/C=C/C1=CC=C(C=C1)Cl)CC2=CC=CC=C2N(CCO)S(=O)(=O)C3=CC=C(C=C3)OC [KN-93] + Cc1cc(Nc2cc(N3CCN(C)CC3)nc(Sc3ccc(NC(=O)C4CC4)cc3)n2)n[nH]1 [Tozasertib] (partner 0.1 µM)
In short: as §1

KN-93 + Phenformin = compound: CN(C/C=C/C1=CC=C(C=C1)Cl)CC2=CC=CC=C2N(CCO)S(=O)(=O)C3=CC=C(C=C3)OC [KN-93] + N=C(N)NC(=N)NCCc1ccccc1 [Phenformin] (partner 250 µM)
In short: as §1

KN-93 + Pemetrexed = compound: CN(C/C=C/C1=CC=C(C=C1)Cl)CC2=CC=CC=C2N(CCO)S(=O)(=O)C3=CC=C(C=C3)OC [KN-93] + Nc1nc2[nH]cc(CCc3ccc(C(=O)N[C@@H](CCC(=O)O)C(=O)O)cc3)c2c(=O)[nH]1 [Pemetrexed] (partner 0.2 µM)
In short: as §1

Row | Cell Line | relative viability (KN-93 + Bortezomib; first compound 0.08 µM) | relative viability (KN-93 + Bortezomib; first compound 0.253 µM) | relative viability (KN-93 + Bortezomib; first compound 2.53 µM) | relative viability (KN-93 + Bortezomib; first compound 8 µM) | relative viability (KN-93 + Linsitinib; first compound 0.08 µM) | relative viability (KN-93 + Linsitinib; first compound 0.253 µM) | relative viability (KN-93 + Linsitinib; first compound 2.53 µM) | relative viability (KN-93 + Linsitinib; first compound 8 µM) | relative viability (KN-93 + Tozasertib; first compound 0.08 µM) | relative viability (KN-93 + Tozasertib; first compound 0.253 µM) | relative viability (KN-93 + Tozasertib; first compound 2.53 µM) | relative viability (KN-93 + Tozasertib; first compound 8 µM) | relative viability (KN-93 + Phenformin; first compound 0.08 µM) | relative viability (KN-93 + Phenformin; first compound 0.253 µM) | relative viability (KN-93 + Phenformin; first compound 2.53 µM) | relative viability (KN-93 + Phenformin; first compound 8 µM) | relative viability (KN-93 + Pemetrexed; first compound 0.08 µM) | relative viability (KN-93 + Pemetrexed; first compound 0.253 µM) | relative viability (KN-93 + Pemetrexed; first compound 2.53 µM) | relative viability (KN-93 + Pemetrexed; first compound 8 µM)
1 | NCI-H647 | 0.712 | 1.16 | 1.63 | 0.986 | 1.33 | 1.5 | 1.65 | 0.952 | 0.31 | 0.299 | 0.0549 | 0.196 | 0.696 | 0.552 | 0.643 | 0.484 | 0.176 | 0.181 | 0.159 | 0.174
2 | HCC-15 | 0.838 | 1.27 | 1.17 | 0.634 | 0.85 | 1 | 0.802 | 0.728 | 0.284 | 0.523 | 0.312 | 0.101 | 0.401 | 0.522 | 0.685 | 0.42 | 0.218 | 0.209 | 0.21 | 0.215
3 | HARA | 1.01 | 1.08 | 1.24 | 0.836 | 0.84 | 1.11 | 0.923 | 0.527 | 0.125 | 0.104 | 0.111 | 0.11 | 0.329 | 0.477 | 0.543 | 0.148 | 0.292 | 0.29 | 0.282 | 0.247
4 | NCI-H650 | 0.959 | 0.915 | 1.25 | 0.454 | 0.893 | 0.836 | 1.21 | 0.562 | 0.738 | 0.762 | 0.694 | 0.523 | 0.481 | 0.47 | 0.449 | 0.414 | 1.02 | 0.993 | 1.04 | 0.788
5 | COR-L 105 | 0.798 | 0.836 | 0.914 | 0.378 | 0.811 | 0.878 | 1.15 | 0.784 | 0.399 | 0.325 | 0.329 | 0.282 | 0.559 | 0.443 | 0.517 | 0.366 | 1.07 | 1.02 | 1.31 | 0.832
6 | NCI-H1993 | 0.836 | 1.02 | 1.2 | 0.523 | 0.728 | 0.633 | 0.837 | 0.655 | 0.563 | 0.552 | 0.593 | 0.519 | 0.619 | 0.519 | 0.512 | 0.574 | 0.474 | 0.535 | 0.618 | 0.58
7 | LC-2-ad | 0.975 | 0.998 | 1.22 | 0.446 | 0.824 | 0.906 | 0.856 | 0.566 | 0.444 | 0.393 | 0.483 | 0.389 | 0.651 | 0.678 | 0.645 | 0.553 | 0.272 | 0.272 | 0.298 | 0.295
8 | H3255 | 0.906 | 0.865 | 0.91 | 0.578 | 0.802 | 1.09 | 1.08 | 0.584 | 0.539 | 0.864 | 0.82 | 0.433 | 0.383 | 0.339 | 0.401 | 0.362 | 0.558 | 0.54 | 0.544 | 0.484
9 | COR-L23 | 0.653 | 1.5 | 1.21 | 0.573 | 0.683 | 1.07 | 0.887 | 0.577 | 0.185 | 0.205 | 0.177 | 0.156 | 0.432 | 0.569 | 0.583 | 0.387 | 0.196 | 0.205 | 0.204 | 0.2
10 | HCC-78 | 0.462 | – | 0.37 | 0.531 | 0.489 | 0.507 | 0.549 | 0.374 | 0.392 | 0.369 | 0.369 | 0.382 | 0.769 | 0.664 | 0.636 | 0.652 | 0.816 | 1.02 | 0.911 | 0.935
11 | HCC-827 | 1.01 | 1.11 | 0.972 | 0.872 | 1.02 | 0.921 | 0.939 | 0.875 | 0.445 | 0.492 | 0.404 | 0.337 | 0.417 | 0.385 | 0.479 | 0.407 | 0.243 | 0.286 | 0.257 | 0.286
12 | NCI-H2087 | 0.759 | 1.24 | 0.874 | 0.33 | 0.941 | 0.905 | 0.824 | 0.43 | 0.248 | 0.238 | 0.267 | 0.152 | 0.427 | 0.648 | 0.57 | 0.442 | 0.694 | 0.672 | 0.564 | 0.607
13 | NCI-H3122 | 1.06 | 1.07 | 1.13 | 1.03 | 1.08 | 0.803 | 1.23 | 0.882 | 0.385 | 0.39 | 0.469 | 0.389 | 0.384 | 0.381 | 0.901 | 0.326 | 0.199 | 0.194 | 0.19 | 0.341
14 | SK-LU-1 | 1.58 | 1.02 | 1.59 | 0.591 | 1.06 | 1.12 | 1.21 | 0.602 | 0.337 | 0.349 | 0.322 | 0.278 | 0.494 | 0.811 | 0.475 | 0.391 | 0.967 | 1.19 | 1.16 | 0.688
15 | NCI-H1755 | 0.923 | 1.07 | 0.967 | 0.546 | 1.01 | 1.05 | 1.05 | 0.837 | 0.625 | 0.604 | 0.584 | 0.468 | 0.699 | 0.608 | 0.674 | 0.605 | 0.455 | 0.432 | 0.453 | 0.44
